The record followed here is publication PMC3419744, “Anti-Tumor Activity of a Novel HS-Mimetic-Vascular Endothelial Growth Factor Binding Small Molecule” (PLoS ONE, 2012).

One assay concerns UV♀2 cells. Kind of assay: Proliferation assay (TetraColor One), UV♀2 endothelial cells. The assay is classed as cell-based, mouse. The settings on record: for IC50: 48 h, serum-containing conditions (10%FBS), NS = not significant, read-out: IC50, inhibition of proliferation, UV♀2. How it is done: (§1) Two tumor cell lines such as LM8, LM8G7, and UV♀2 endothelial were used to evaluate the anti-proliferative activity of the compounds. UV♀2 (1×10^4 cells) or LM8 or LM8G7 cells (5×10^3 cells) were seeded in 96-well plate and incubated overnight at 37°C. […] 5 µL of TetraColor One reagent was added and incubated for an additional 2–4 h and the absorbance at 450 nm (Bio-Rad) was measured. […] The results were expressed as a percentage of viable cells relative to cells treated with DMSO. The viability of the cells was expressed in percentage terms and IC50 value was calculated.

For another assay, the system named is LM8 cells. Kind of assay: Proliferation assay (TetraColor One), LM8 cells. The assay is classed as cell-based, murine. The settings on record: for IC50: 48 h, NS = not significant, read-out: IC50, inhibition of proliferation, LM8. The method, then:
as §1

The test system of another assay is LM8G7 cells. As to the kind of experiment: Proliferation assay (TetraColor One), LM8G7 cells. Format: cell-based, murine. The note with it: for IC50: NS = not significant, read-out: IC50, inhibition of proliferation, LM8G7. How it is done:
as §1

Another assay has as its target T1, VEGF (Homo sapiens, UniProt P15692).
T1 construct: purchased Wako Pure Chemicals Co. (Osaka, Japan)
T1 sequence (P15692 1-191 isoform P15692-4): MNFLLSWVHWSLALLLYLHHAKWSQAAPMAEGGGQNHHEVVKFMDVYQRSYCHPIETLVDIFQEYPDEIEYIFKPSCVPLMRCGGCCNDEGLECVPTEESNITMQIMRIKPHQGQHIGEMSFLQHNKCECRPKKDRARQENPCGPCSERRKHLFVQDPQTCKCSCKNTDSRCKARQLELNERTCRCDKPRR
Kind of assay: SPR imaging of immobilized small molecules binding to VEGF. The settings on record: compounds immobilized on chip, growth factor 50 µg/mL. How it is done:
(§2) The chip was washed successively with ethanol, water, and ethanol. Then the chip is air dried to obtain the photo reactive chip. The compounds 1–9 were spotted on the chip (10 mM), washed, and dried in vacuo, and then irradiated at 365 nm under a UV transmission filter (Sigma-Koki, Japan). The compounds were immobilized onto the photo-reactive linker that bound to the gold-surface of the glass chip was set into an SPR imaging instrument (TOYOBO), and each growth factor (50 µg/mL) was injected onto the array surface at 0.1 ml/min and incubated for 10 min. The SPR image and signal data were collected with an SPR analysis program (TOYOBO). The SPR difference image was constructed by using the Scion Image program (Scion, MD).

The target of assay [1] is T2, VEGF165 binding to immobilised heparin (Homo sapiens, UniProt P15692).
T2 construct: purchased Wako Pure Chemicals Co. (Osaka, Japan)
T2 sequence (P15692 1-191 isoform P15692-4): T1 sequence (P15692 1-191 isoform P15692-4)
Kind of assay: BIAcore analysis of VEGF165 binding to immobilised heparin. The settings on record: VEGF165 250 nM. How it is done: The heparin-immobilized sensor chip was prepared as reported earlier. […] The flow rate was kept at a moderate speed ([…]) according to the manufacturer's recommendations.
In general terms: Surface plasmon resonance follows binding to a sensor surface in real time, without labels.

In a further assay the target is T3, FGF-2 (Homo sapiens, UniProt P09038).
T3 construct: purchased Wako Pure Chemicals Co. (Osaka, Japan)
T3 sequence (P09038 134-288): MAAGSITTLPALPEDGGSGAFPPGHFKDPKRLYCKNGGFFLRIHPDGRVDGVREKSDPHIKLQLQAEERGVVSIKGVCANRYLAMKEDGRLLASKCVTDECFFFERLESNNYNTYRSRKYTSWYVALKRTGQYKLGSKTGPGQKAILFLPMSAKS
Kind of assay: SPR imaging of immobilized small molecules binding to FGF-2. The settings on record: compounds immobilized on chip, growth factor 50 µg/mL. The method, then:
as §2

Setting [2] is: Mus musculus, LM8G7, 48 h, 48 h.

Structures are written as SMILES. “Also recorded” adds a separate entry of the source. Like-named read-outs stand apart in the source and are kept apart here.

Take `N.N.[Cl][Pt][Cl]` [Cisplatin, reference compound]: the IC50 in the assay with UV♀2 cells was determined as 12 ± 0.4 µM; in the assay on LM8 cells, 30 ± 24 µM; in the assay on LM8G7 cells (48 h), 15 ± 0.6 µM.
In the case of `Cc1ccc(C(=O)Nc2ccc(S(=O)(=O)O)c3cc(S(=O)(=O)O)cc(S(=O)(=O)O)c23)cc1NC(=O)c1cccc(NC(=O)Nc2cccc(C(=O)Nc3cc(C(=O)Nc4ccc(S(=O)(=O)O)c5cc(S(=O)(=O)O)cc(S(=O)(=O)O)c45)ccc3C)c2)c1` [Suramin, reference compound], the IC50 with UV♀2 cells (Mus musculus, Endothelial cell) worked out at 34 ± 1.4 µM; in the assay on LM8 cells (Mus musculus) it was 12 ± 2.8 µM; in the assay on LM8G7 cells (Mus musculus, LM8G7, 48 h), 14 ± 24 µM. In addition, the “inhibition of proliferation of LM8 cells (in words)” value with LM8 cells is listed as “comparable with the inhibitory activity of compound 8”. Further, the “inhibition of proliferation of LM8G7 cells (in words)” value with LM8G7 cells was “comparable with the inhibitory activity of compound 8”.
`Cc1nnc(S)n1N=Cc1c(F)cccc1F` [compound 5, 4-[(2,6-Difluoro-benzylidene)-amino]-5-methyl-4H-[1,2,4]triazole-3-thiol]: the IC50 was 45 ± 2.1 µM in the assay on UV♀2 cells (Mus musculus, Endothelial cell); 36 ± 6.4 µM with LM8 cells (Mus musculus); > 100 µM in the assay with LM8G7 cells (setting [2]).
Regarding `CCc1nnc(S)n1N=Cc1c(F)cccc1F` [compound 6, 4-[(2,6-Difluoro-benzylidene)-amino]-5-ethyl-4H-[1,2,4]triazole-3-thiol], the “effect on proliferation of UV♀2 cells (in words)” value in the assay with UV♀2 cells was “moderately inhibited”. The IC50 was found to be 14 ± 4.6 µM with UV♀2 cells (Mus musculus, Endothelial cell); 64 ± 6.7 µM in the assay on LM8 cells (Mus musculus); 23 ± 0.5 µM in the assay on LM8G7 cells (setting [2]). For the same compound, at VEGF, the “binding to VEGF (SPR signal)” value is “significantly; also recorded: weak binding”.
Take `Fc1cccc(F)c1C=Nn1c(S)nnc1-c1ccccc1` [compound 7, 4-[(2,6-difluoro-benzylidene)-amino]-5-phenyl-4H-[1,2,4]triazole-3-thiol]: the IC50 was > 100 µM in the assay with UV♀2 cells (Mus musculus, Endothelial cell); > 100 µM in the assay with LM8 cells (Mus musculus); > 100 µM in the assay with LM8G7 cells (setting [2]). Also, in assay [1], the “inhibition of binding of VEGF165 to immobilised heparin” value is recorded as “failed to inhibit the binding of VEGF to heparin”. Besides, the “binding to VEGF (SPR signal)” value on VEGF is “does not bind VEGF”.
Take `CCCCc1nc(Cl)c(C=O)n1Cc1ccc([N+](=O)[O-])cc1` [compound 8, 2-butyl-5-chloro-3-(4-nitro-benzyl)-3H-imidazole-4-carbaldehyde]: in assay [1], the “inhibition of binding of VEGF165 to immobilised heparin” value is listed as “inhibited the binding of VEGF165 to the immobilised heparin”. Moreover, the “binding to VEGF (SPR signal)” value on VEGF is “very strongly; also recorded: strongly”. Moreover, the “binding to FGF-2 (SPR signal)” value at FGF-2 is reported as “significantly, although with weaker affinity compared to its VEGF binding; also recorded: weakly”.
For `CCCCc1nc(Cl)c(C=O)n1Cc1cc2c(cc1C)OCO2` [compound 9], the IC50 in the assay with UV♀2 cells was > 100 µM; in the assay on LM8 cells it was 46 ± 6.7 µM; in the assay with LM8G7 cells (48 h), > 100 µM.
